# According to US20240123078A1, “COMPOUNDS AND METHODS FOR MODULATING IMMUNE-RELATED PROTEINS” (Vividion Therapeutics, Inc., priority 2019, published 2024):
# What was measured:
# Assay in all cases: Cysteine reactivity ABPP
# Format in all cases: binding
# [1] = biological target: T1, PTPN11 Tyrosine-protein phosphatase non-receptor type 11 C259 (Q06124) (Homo sapiens, UniProt Q06124)
# T1 construct: endogenous in cells; host or cells: primary human T cells
# T1 sequence (Q06124 1-593): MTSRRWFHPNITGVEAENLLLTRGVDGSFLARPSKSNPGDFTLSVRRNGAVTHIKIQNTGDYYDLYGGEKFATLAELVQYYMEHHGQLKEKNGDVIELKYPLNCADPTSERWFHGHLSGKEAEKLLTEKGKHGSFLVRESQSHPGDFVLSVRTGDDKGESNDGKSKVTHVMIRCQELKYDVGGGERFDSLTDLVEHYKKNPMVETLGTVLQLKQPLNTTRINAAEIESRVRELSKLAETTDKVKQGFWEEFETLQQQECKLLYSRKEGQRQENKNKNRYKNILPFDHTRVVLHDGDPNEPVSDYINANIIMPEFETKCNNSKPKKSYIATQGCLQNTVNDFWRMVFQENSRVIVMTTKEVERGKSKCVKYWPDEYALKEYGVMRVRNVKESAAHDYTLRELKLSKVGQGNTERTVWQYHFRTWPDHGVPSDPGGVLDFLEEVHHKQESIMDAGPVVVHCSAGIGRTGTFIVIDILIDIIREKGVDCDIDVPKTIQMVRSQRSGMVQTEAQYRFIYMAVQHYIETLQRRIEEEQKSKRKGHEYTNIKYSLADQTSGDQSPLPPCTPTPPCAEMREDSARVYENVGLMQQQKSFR
# Experimental: (§1) Activated or expanded primary human T cells were re-suspended in RPMI (1×10^6 cells/mL) containing 10% fetal bovine serum (FBS), penicillin (100 U/mL), streptomycin ([…]), and L-glutamine (2 mM). The cells were treated with DMSO or compounds for 3 h, pelleted (524 g, 5 min), washed with PBS, and lysed by sonication (2×8 pulses). Soluble and particulate proteomic fractions were separated by ultracentrifugation (100,000 g, 45 min), and protein concentration was normalized to 1.7 mg/mL using a standard DC protein assay (Bio-Rad). The resulting proteomes were analyzed by competitive isotopic Tandem Orthogonal Proteolysis Activity-Based Protein Profiling (isoTOP-ABPP).
# (§2) The heavy/light isoTOP-ABPP ratios (R values) for each unique peptide (DMSO/compound treated) were quantified with in-house CIMAGE software (Weerapana et al., 2010) using default parameters (3 MS1 acquisitions per peak and signal to noise threshold set to 2.5). Site-specific engagement of cysteine residues was assessed by blockade of IA-alkyne probe labeling. […] Ratios for unique peptide sequences were calculated for each experiment; overlapping peptides with the same modified cysteine (e.g., different charge states, elution times or tryptic termini) were grouped together and the median ratio was reported as the final ratio (R). Additionally, ratios for peptide sequences containing multiple cysteines were grouped together. When aggregating data across experimental replicates, the mean of each experimental median R was reported. The peptide ratios reported by CIMAGE were further filtered to ensure the removal or correction of low-quality ratios in each individual dataset. The quality filters applied were the following: removal of half-tryptic peptides, removal of peptides with more than one tryptic miscleaved, removal of peptides with R=20 and only a single MS2 event triggered during the elution of the parent ion, removal of non-unique peptides. Further filtering was then performed as described below for each experiment type.
# (§3) Samples (500 μL, 1.7 mg/mL) were treated with iodoacetamide desthiobiotin (IA-DTB, 5 μL of 10 mM stock in DMSO, final concentration: 100 μM) for 1 h at ambient temperature. Ice-cold MeOH (500 μL) and CHCl3 (200 μL) were then added, the mixture was vortexed and centrifuged (10,000 g, 10 min, 4° C.) to afford a protein disc at the interface of CHCl3 and aqueous layers. Both layers were aspirated without perturbing the disk, which was re-suspended in cold methanol (500 μL) and CHCl3 (200 μL) by sonication. The proteins were pelleted (10,000 g, 10 min, 4° C.), and the resulting pellets were re-suspended in a buffer (90 μL) containing 9M urea, 10 mM DTT and 50 mM triethylammonium bicarbonate ( 1/20 dilution of 1.0 M stock solution, pH 8.5) by thorough pipetting up and down. The resulting mixture was heated at 65° C. for 20 min. Sample was cooled to room temp, iodoacetamide (10 μL, 500 mM solution in H2O) was added, and the samples were incubated at 37° C. for 30 min with shaking.
# (§4) At individual TMT experiment level, the following filters were applied to remove low-quality peptides: removal of non-unique peptides; removal of half-tryptic peptides; removal of peptides with more than one internal miscleaved site; removal of peptides with low (<10,000) sum of reporter ion intensities for control channels, and peptides with high variation between the replicate control channels (coefficient of variance >0.5). R values (compound-treated vs. DMSO-treated) for each peptide entry were calculated using the reporter ion intensities of DMSO and compound treated TMT channels for each treatment group with a maximum ratio cap of 20. […]
# [2] = biological target: T2, STAT3 Signal transducer and activator of transcription 3 C712, C718 (P40763) (Homo sapiens, UniProt P40763)
# T2 construct: endogenous in cells; host or cells: primary human T cells
# Experimental: as §1, §2, §3, §4
# [3] = biological target: T3, CBLB E3 ubiquitin-protein ligase CBL-B C686 (Q13191) (Homo sapiens, UniProt Q13191)
# T3 construct: endogenous in cells; host or cells: primary human T cells
# Experimental: as §1, §2, §3, §4
# [4] = biological target: T4, STAT3 Signal transducer and activator of transcription 3 C259 (P40763) (Homo sapiens, UniProt P40763)
# T4 construct: endogenous in cells; host or cells: primary human T cells
# Experimental: as §1, §2, §3, §4
# [5] = biological target: T5, PELP1 Proline-, glutamic acid- and leucine-rich protein 1 C71 (Q8IZL8) (Homo sapiens, UniProt Q8IZL8)
# T5 construct: endogenous in cells; host or cells: primary human T cells
# Experimental: as §1, §2, §3, §4
# [6] = biological target: T6, ACAT1 Acetyl-CoA acetyltransferase, mitochondrial C119 (P24752) (Homo sapiens, UniProt P24752)
# T6 construct: endogenous in cells; host or cells: primary human T cells
# T6 sequence (P24752 34-427): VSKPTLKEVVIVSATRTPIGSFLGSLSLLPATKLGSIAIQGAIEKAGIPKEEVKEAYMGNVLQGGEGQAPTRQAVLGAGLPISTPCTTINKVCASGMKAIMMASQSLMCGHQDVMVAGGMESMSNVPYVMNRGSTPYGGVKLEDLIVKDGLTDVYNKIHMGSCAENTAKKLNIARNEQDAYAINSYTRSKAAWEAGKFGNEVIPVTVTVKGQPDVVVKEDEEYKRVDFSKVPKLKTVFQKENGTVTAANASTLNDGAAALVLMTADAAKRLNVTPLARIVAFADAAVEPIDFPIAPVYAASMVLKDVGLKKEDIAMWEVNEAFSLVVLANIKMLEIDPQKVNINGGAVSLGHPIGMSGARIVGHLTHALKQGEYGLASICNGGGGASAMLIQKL
# Experimental: as §1, §2, §3, §4
# [7] = biological target: T7, ATP2A2 Sarcoplasmic/endoplasmic reticulum calcium ATPase 2 C997 (P16615) (Homo sapiens, UniProt P16615)
# T7 construct: endogenous in cells; host or cells: primary human T cells
# Experimental: as §1, §2, §3, §4
# T3 sequence (Q13191 whole entry): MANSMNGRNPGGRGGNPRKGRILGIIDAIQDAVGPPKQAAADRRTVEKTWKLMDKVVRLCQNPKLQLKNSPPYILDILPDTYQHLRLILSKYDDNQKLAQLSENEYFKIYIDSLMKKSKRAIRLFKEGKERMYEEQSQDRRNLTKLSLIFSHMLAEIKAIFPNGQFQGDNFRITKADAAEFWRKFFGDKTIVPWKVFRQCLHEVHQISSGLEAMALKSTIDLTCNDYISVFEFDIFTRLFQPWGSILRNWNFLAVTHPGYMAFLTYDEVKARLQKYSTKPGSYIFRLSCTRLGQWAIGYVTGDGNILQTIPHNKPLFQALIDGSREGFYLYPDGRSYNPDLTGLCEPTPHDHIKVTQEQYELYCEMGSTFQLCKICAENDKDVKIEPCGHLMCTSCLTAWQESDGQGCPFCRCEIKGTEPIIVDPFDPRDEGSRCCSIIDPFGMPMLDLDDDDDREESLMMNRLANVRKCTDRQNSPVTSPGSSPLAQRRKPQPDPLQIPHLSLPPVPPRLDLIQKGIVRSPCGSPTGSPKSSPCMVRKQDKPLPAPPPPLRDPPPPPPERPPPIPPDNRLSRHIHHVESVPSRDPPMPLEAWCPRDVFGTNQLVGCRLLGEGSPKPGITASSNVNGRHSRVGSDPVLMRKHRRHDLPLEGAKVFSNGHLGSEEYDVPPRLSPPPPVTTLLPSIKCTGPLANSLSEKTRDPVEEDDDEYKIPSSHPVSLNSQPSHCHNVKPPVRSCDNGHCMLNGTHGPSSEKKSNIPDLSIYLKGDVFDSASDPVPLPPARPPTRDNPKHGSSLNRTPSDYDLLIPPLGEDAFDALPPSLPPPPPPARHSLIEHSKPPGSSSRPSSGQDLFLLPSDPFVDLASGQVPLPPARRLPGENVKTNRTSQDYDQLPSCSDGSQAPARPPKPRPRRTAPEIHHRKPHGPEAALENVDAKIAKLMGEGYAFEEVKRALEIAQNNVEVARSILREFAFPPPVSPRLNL
# T4 sequence (P40763 whole entry, one chain of several): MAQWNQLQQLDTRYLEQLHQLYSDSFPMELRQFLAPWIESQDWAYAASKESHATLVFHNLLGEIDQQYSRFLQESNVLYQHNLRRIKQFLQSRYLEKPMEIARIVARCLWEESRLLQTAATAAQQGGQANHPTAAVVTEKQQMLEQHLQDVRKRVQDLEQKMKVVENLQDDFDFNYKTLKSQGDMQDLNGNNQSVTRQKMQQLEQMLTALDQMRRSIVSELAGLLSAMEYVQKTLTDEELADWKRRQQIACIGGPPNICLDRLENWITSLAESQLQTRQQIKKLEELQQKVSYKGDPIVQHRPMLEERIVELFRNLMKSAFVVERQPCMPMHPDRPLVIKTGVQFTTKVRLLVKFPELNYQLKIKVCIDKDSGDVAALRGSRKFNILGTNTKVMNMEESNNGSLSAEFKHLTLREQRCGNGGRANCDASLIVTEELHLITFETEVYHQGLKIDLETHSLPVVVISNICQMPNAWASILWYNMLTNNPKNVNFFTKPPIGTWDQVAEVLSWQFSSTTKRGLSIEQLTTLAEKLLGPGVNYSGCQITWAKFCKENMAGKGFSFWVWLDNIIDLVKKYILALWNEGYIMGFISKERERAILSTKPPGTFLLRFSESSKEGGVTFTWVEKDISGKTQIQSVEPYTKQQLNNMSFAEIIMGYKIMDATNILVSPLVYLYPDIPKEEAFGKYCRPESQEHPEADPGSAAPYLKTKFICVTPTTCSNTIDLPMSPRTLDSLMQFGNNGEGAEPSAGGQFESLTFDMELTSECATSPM
# T2 sequence (P40763 whole entry, one chain of several): as above
# T7 sequence (P16615 whole entry, one chain of several): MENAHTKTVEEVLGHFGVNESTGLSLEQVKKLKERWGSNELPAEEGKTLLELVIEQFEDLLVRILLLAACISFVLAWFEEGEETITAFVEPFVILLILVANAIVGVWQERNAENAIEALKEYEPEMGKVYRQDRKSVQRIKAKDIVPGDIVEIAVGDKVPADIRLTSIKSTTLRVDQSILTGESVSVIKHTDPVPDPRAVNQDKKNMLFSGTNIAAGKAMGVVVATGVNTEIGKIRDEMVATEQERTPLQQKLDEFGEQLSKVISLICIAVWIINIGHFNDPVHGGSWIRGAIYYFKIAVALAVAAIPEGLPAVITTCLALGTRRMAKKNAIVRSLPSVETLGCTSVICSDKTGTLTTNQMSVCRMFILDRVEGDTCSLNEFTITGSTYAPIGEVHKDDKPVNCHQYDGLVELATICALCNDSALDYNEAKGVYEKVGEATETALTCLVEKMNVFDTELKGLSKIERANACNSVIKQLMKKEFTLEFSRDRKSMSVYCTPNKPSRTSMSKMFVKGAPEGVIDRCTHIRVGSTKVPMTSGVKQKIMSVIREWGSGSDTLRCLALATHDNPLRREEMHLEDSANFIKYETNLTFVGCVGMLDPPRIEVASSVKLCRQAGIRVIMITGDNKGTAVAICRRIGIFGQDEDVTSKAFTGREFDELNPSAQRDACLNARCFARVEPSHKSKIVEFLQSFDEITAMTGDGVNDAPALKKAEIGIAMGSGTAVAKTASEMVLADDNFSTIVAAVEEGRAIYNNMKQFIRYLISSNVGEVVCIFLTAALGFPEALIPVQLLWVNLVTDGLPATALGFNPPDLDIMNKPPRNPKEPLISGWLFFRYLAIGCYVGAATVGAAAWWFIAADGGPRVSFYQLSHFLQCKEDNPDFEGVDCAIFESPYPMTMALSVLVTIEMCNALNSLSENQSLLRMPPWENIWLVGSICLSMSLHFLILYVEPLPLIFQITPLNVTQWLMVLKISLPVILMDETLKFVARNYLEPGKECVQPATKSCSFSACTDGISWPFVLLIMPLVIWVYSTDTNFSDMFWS
# T5 sequence (Q8IZL8 whole entry, one chain of several): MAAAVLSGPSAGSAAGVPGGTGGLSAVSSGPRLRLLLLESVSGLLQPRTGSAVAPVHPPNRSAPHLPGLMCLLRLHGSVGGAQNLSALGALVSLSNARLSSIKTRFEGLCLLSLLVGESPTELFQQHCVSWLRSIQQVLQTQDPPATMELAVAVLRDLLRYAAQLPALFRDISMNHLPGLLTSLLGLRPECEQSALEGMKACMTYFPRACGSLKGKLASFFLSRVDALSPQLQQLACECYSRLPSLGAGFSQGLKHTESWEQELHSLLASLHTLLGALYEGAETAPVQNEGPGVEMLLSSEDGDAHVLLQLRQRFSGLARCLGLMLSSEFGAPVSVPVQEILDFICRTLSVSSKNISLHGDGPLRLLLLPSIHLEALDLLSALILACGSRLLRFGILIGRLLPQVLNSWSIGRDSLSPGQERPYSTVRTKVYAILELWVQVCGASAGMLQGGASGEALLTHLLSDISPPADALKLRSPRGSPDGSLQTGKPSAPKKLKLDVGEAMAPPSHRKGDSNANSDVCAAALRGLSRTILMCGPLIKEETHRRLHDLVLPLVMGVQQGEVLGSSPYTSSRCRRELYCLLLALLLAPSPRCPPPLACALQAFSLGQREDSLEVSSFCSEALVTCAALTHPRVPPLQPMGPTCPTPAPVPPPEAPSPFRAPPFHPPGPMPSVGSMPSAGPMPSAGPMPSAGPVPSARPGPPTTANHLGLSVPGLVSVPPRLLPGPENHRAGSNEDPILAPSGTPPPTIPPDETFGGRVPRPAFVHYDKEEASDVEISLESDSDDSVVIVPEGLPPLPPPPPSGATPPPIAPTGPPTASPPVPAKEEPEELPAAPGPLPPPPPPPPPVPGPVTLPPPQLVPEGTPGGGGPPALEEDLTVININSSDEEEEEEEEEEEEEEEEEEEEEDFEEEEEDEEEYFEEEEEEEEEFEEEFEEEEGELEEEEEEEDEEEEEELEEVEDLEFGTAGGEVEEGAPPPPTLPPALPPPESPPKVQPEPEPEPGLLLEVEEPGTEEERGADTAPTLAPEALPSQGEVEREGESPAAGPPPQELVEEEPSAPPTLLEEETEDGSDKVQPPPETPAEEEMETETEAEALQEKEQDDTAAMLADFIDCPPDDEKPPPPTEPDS
Compound,Cysteine reactivity proteomic data ([1]; 100 μM),Cysteine reactivity proteomic data ([1]; 500 μM),Cysteine reactivity proteomic data ([2]; 100 μM),Cysteine reactivity proteomic data ([2]; 500 μM),Cysteine reactivity proteomic data ([3]; 100 μM),Cysteine reactivity proteomic data ([3]; 500 μM),Cysteine reactivity proteomic data ([4]; 100 μM),Cysteine reactivity proteomic data ([4]; 500 μM),Cysteine reactivity proteomic data [5]; 100,Cysteine reactivity proteomic data ([6]; 100 μM),Cysteine reactivity proteomic data ([6]; 500 μM),Cysteine reactivity proteomic data [7]; 100,Cysteine reactivity proteomic data ([5]; 500 μM),Cysteine reactivity proteomic data ([7]; 500 μM)
O=C(CCl)N1CCN(S(=O)(=O)c2ccc(-c3ccncc3)cc2)CC1 [Compound B9],16.62,84.5074,64.9054,69.5373,25.6002,76.6489,42.3797,73.3713,71.33,−38.85,24.795,22.19,–,–
C=CC(=O)N(Cc1cccc(Cl)c1Cl)c1ccc(Oc2ccccc2)c(C(F)(F)F)c1 [Compound K4],–,28.7525,–,12.6621,–,2.418,–,13.6326,–,–,−0.3282,–,1.71,61.48
